The results in this text go back to article PMC9490236, “Accurate de novo design of membrane-traversing macrocycles” (Cell, 2022).

The term Papp denotes a coefficient for how fast a substance crosses the barrier.

Where a SMILES comes first, the peptide text is derived from it. [ ]: non-standard residue; d: D form. NMeF = CN[C@@H](Cc1ccccc1)C(=O)O; dNMeF = CN[C@H](Cc1ccccc1)C(=O)O; NMeL = CN[C@@H](CC(C)C)C(=O)O; dNMeL = CN[C@H](CC(C)C)C(=O)O; dNMeV = CN[C@@H](C(=O)O)C(C)C; NMeV = CN[C@H](C(=O)O)C(C)C; NMeA = CN[C@@H](C)C(=O)O; dNMeA = CN[C@H](C)C(=O)O

For data set [1] the following is noted: for PAMPA_R1 / PAMPA_R3 / PAMPA_Papp_Avg: PAMPA. (PAMPA measures passive passage across an artificial lipid membrane.)
A short description of the next data set: in vitro. Particulars: PAMPA, PAMPA_Papp_Avg.

On to `CC[C@H](C)[C@@H]1NC(=O)[C@H](C(C)C)N(C)C(=O)[C@H]2CCCN2C(=O)[C@H]([C@@H](C)CC)NC(=O)[C@@H](CC(C)C)N(C)C(=O)[C@@H](C)NC(=O)[C@@H]2CCCN2C(=O)[C@H]2CCCN2C(=O)[C@H](CC(C)C)NC(=O)[C@@H](Cc2ccccc2)NC(=O)[C@H](CC(C)C)NC(=O)[C@H]2CCCN2C1=O` [Design D12.3, DPRO *VAL ILE DPRO LEU DPHE LEU DPRO PRO DALA *DLEU ILE] (cyclo([dA][dNMeL]I[dP][NMeV]I[dP]L[dF]L[dP]P)), for which, in data set [1], the PAMPA_R1 turned out to be 7.65E-07 and the PAMPA_R3 is given as 9.01E-07. This molecule came in with a Papp in the data set “in vitro” of 0.789 ×10⁻⁶ cm/s.

Take `CC[C@H](C)[C@@H]1NC(=O)[C@H]2CCCN2C(=O)[C@@H]2CCCN2C(=O)[C@H](C(C)C)NC(=O)[C@@H](C(C)C)NC(=O)[C@H](Cc2ccccc2)N(C)C(=O)[C@H]2CCCN2C(=O)[C@@H](CC(C)C)N(C)C(=O)[C@@H](CC(C)C)NC1=O` [Design D9.42, DPRO ILE DLEU *DLEU DPRO *PHE DVAL VAL PRO] (cyclo(I[dL][dNMeL][dP][NMeF][dV]VP[dP])): in data set [1], the PAMPA_R1 turned out to be 1.18E-06 and the PAMPA_R3 was 1.07E-06. For the same molecule, in the data set “in vitro”, the apparent permeability (Papp) is 1.12 ×10⁻⁶ cm/s.

As for `CC[C@@H](C)[C@H]1NC(=O)[C@H](Cc2ccccc2)N(C)C(=O)[C@@H](CC(C)C)N(C)C(=O)[C@H](C(C)C)NC(=O)[C@H](C)NC(=O)[C@@H]2CCCN2C(=O)[C@H](CC(C)C)N(C)C(=O)[C@@H](Cc2ccccc2)N(C)C(=O)[C@H](C)N(C)C(=O)[C@H](C)N(C)C1=O` [Design D10.56, *DPHE *LEU PRO ALA VAL *DLEU *PHE DILE *ALA *ALA] (cyclo(AV[dNMeL][NMeF][dI][NMeA][NMeA][dNMeF][NMeL]P)), in data set [1], the PAMPA_R1 is on record as 9.15E-06 and the PAMPA_R3 is on record as 8.95E-06. Further, the Papp in the data set “in vitro” was found to be 9.02 ×10⁻⁶ cm/s.

In the case of `CC[C@@H](C)[C@H]1NC(=O)[C@@H](CC(C)C)NC(=O)[C@@H]2CCCN2C(=O)[C@H]2CCCN2C(=O)[C@@H](C(C)C)NC(=O)[C@H](C)NC(=O)[C@@H]2CCCN2C(=O)[C@@H]([C@H](C)CC)NC(=O)[C@@H](C)N(C)C1=O` [Design D9.23, DILE *DALA DILE PRO ALA DVAL DPRO PRO DLEU] (cyclo([dL][dI][dNMeA][dI]PA[dV][dP]P)), in data set [1], the PAMPA_R1 was found to be 1.37E-07 and the PAMPA_R3 was 1.50E-07. Besides, the Papp in the data set “in vitro” is 0.141 ×10⁻⁶ cm/s.

For `CC[C@H](C)[C@@H]1NC(=O)[C@H](CC(C)C)N(C)C(=O)[C@H]2CCCN2C(=O)[C@@H](CC(C)C)NC(=O)[C@H](CC(C)C)NC(=O)[C@@H](CC(C)C)N(C)C(=O)[C@@H]2CCCN2C1=O` [Design D7.2, DLEU DPRO *LEU ILE PRO *DLEU LEU] (cyclo(IP[dNMeL]L[dL][dP][NMeL])), in data set [1], the PAMPA_R1 came out at 1.48e-05 cm/s. The Papp in “in vitro” worked out at 11.6 ×10⁻⁶ cm/s.

As to `CC(C)C[C@H]1NC(=O)[C@@H]2CCCN2C(=O)[C@@H]2CCCN2C(=O)[C@@H](C)NC(=O)[C@@H](Cc2ccccc2)N(C)C(=O)[C@H]2CCCN2C1=O` [Design D6.4, DPRO *DPHE DALA PRO PRO DLEU] (cyclo(PP[dL][dP][dNMeF][dA])), in data set [1], the PAMPA_R1 is 1.85e-05 cm/s and the PAMPA_R3 was 1.58e-05 cm/s. Also, in “in vitro”, the Papp was found to be 13.9 ×10⁻⁶ cm/s.

Regarding `CC(C)C[C@@H]1NC(=O)[C@H](C(C)C)NC(=O)[C@@H](CC(C)C)N(C)C(=O)[C@H](C)NC(=O)[C@@H](CC(C)C)N(C)C(=O)[C@@H]2CCCN2C(=O)[C@H]2CCCN2C(=O)[C@H](C)N(C)C(=O)[C@H]2CCCN2C(=O)[C@@H](CC(C)C)NC1=O` [Design D10.35, LEU DLEU DPRO *ALA DPRO PRO *DLEU ALA *DLEU VAL] (cyclo([dNMeL]A[dNMeL]VL[dL][dP][NMeA][dP]P)), in data set [1], the PAMPA_R1 came to 5.25E-07 and the PAMPA_R3 amounted to 2.07E-07. In “in vitro”, this molecule had a Papp of 0.279 ×10⁻⁶ cm/s.

As for `CC(C)C[C@@H]1C(=O)N[C@H](C)C(=O)N2CCC[C@H]2C(=O)N(C)[C@H](CC(C)C)C(=O)N[C@@H](C)C(=O)N(C)[C@@H](CC(C)C)C(=O)N(C)[C@H](C(C)C)C(=O)N[C@H](Cc2ccccc2)C(=O)N2CCC[C@@H]2C(=O)N2CCC[C@H]2C(=O)N1C` [Design D10.18, DPRO PRO *DLEU DALA PRO *DLEU ALA *LEU *DVAL DPHE] (cyclo([dNMeL][dA]P[dNMeL]A[NMeL][dNMeV][dF][dP]P)), in data set [1], the PAMPA_R1 is on record as 9.23E-08 and the PAMPA_R3 came out at 1.49E-07. In addition, the Papp in “in vitro” stood at 0.0948 ×10⁻⁶ cm/s.

In data set [1], `CC(C)C[C@@H]1C(=O)N(C)[C@@H](CC(C)C)C(=O)N2CCC[C@@H]2C(=O)N[C@H](CC(C)C)C(=O)N[C@H](C)C(=O)N2CCC[C@@H]2C(=O)N2CCC[C@H]2C(=O)N[C@@H](C)C(=O)N[C@H](Cc2ccccc2)C(=O)N[C@H](CC(C)C)C(=O)N[C@@H](C(C)C)C(=O)N1C` (single isomer, unassigned) [Design D11.9.p1, VAL *DLEU *LEU DPRO DLEU DALA DPRO PRO ALA DPHE DLEU] showed a PAMPA_R1 of 1.04E-06 and a PAMPA_R3 of 2.42E-07. This molecule also yielded a Papp in the data set “in vitro” of 0.641 ×10⁻⁶ cm/s.

`CC(C)C[C@@H]1NC(=O)[C@@H](Cc2ccccc2)N(C)C(=O)[C@H](C(C)C)NC(=O)[C@H](C)NC(=O)[C@@H](C)NC(=O)[C@@H](Cc2ccccc2)N(C)C(=O)[C@@H]2CCCN2C(=O)[C@H](C(C)C)NC(=O)[C@@H]2CCCN2C(=O)[C@@H](C)NC1=O` [Design D10.48, DALA PRO VAL PRO *DPHE DALA ALA VAL *DPHE LEU] (cyclo(AV[dNMeF]L[dA]PVP[dNMeF][dA])): in data set [1], the PAMPA_R1 is reported as 3.54E-07 and the PAMPA_R3 is reported as 4.59E-07. The same molecule registered a Papp in “in vitro” of 0.405 ×10⁻⁶ cm/s.

Regarding `CC(C)C[C@@H]1NC(=O)[C@@H]2CCCN2C(=O)[C@@H](Cc2ccccc2)N(C)C(=O)[C@H](CC(C)C)N(C)C(=O)[C@H](CC(C)C)N(C)C(=O)[C@@H](CC(C)C)N(C)C(=O)[C@H](C)NC(=O)[C@H](C(C)C)NC(=O)CNC(=O)[C@H](Cc2ccccc2)NC1=O` [Design D10.24, PHE GLY VAL ALA *DLEU *LEU *LEU *DPHE PRO LEU] (cyclo(A[dNMeL][NMeL][NMeL][dNMeF]PLFGV)), in data set [1], the PAMPA_Papp_Avg result was “BQL”, the PAMPA_R1 entry is “BQL” and the PAMPA_R3 entry is listed as “BQL”.

As for “*DPHE *LEU PRO DLEU VAL *DLEU PRO DILE *ALA *ALA [Design D10.65]”, in data set [1], the PAMPA_Papp_Avg result was “BQL”, the PAMPA_R1 entry is listed as “BQL” and the PAMPA_R3 entry is “BQL”.

For `CC(C)C[C@@H]1NC(=O)[C@@H](CC(C)C)N(C)C(=O)[C@@H]2CCCN2C(=O)[C@H](CC(C)C)N(C)C(=O)[C@@H](C)NC(=O)[C@@H](CC(C)C)N(C)C(=O)[C@@H]2CCCN2C(=O)[C@@H](CC(C)C)N(C)C(=O)[C@H](CC(C)C)N(C)C(=O)[C@H](Cc2ccccc2)NC1=O` [Design D10.21, *LEU *DLEU PRO *DLEU DALA *LEU PRO *DLEU LEU PHE] (cyclo(F[NMeL][dNMeL]P[dNMeL][dA][NMeL]P[dNMeL]L)), the “permeability in transwell assays” value in data set [1] (Caco-2) was “not permeable”. Besides, in data set [1], the PAMPA_Papp_Avg result is on record as “BQL”, the PAMPA_R1 result is given as “BQL” and the PAMPA_R3 entry is “BQL”.

Regarding `CC[C@H](C)[C@@H]1NC(=O)[C@H](C(C)C)NC(=O)[C@@H](CC(C)C)N(C)C(=O)[C@H](Cc2ccccc2)N(C)C(=O)[C@H]2CCCN2C(=O)[C@H](C(C)C)NC(=O)[C@@H](C)NC(=O)[C@H](CC(C)C)N(C)C(=O)[C@H]2CCCN2C(=O)[C@@H](Cc2ccccc2)NC1=O` [Design D10.9, DPRO *LEU DALA VAL DPRO *PHE *DLEU VAL ILE DPHE] (cyclo(I[dF][dP][NMeL][dA]V[dP][NMeF][dNMeL]V)), in data set [1], the PAMPA_Papp_Avg entry is reported as “BQL”, the PAMPA_R1 entry is recorded as “BQL” and the PAMPA_R3 entry is on record as “BQL”.

`CC(C)C[C@@H]1C(=O)N(C)[C@@H](Cc2ccccc2)C(=O)N[C@@H](C(C)C)C(=O)N2CCC[C@H]2C(=O)NCC(=O)N2CCC[C@H]2C(=O)N(C)[C@H](CC(C)C)C(=O)N[C@@H](C(C)C)C(=O)N[C@H](CC(C)C)C(=O)N1C` (single isomer, unassigned) [Design D9.43.p1, *DLEU VAL DLEU *DLEU *PHE VAL PRO GLY PRO]: in data set [1], the PAMPA_Papp_Avg was 9.46E-07, the PAMPA_R1 is 8.93E-07 and the PAMPA_R3 is reported as 5.40E-07.

In the case of `CC[C@@H](C)[C@H]1NC(=O)[C@@H](CC(C)C)N(C)C(=O)[C@@H]2CCCN2C(=O)[C@H]([C@@H](C)CC)NC(=O)[C@H]([C@@H](C)CC)N(C)C(=O)[C@@H](CC(C)C)NC(=O)[C@@H](C(C)C)N(C)C(=O)[C@H]2CCCN2C(=O)[C@@H](C(C)C)NC(=O)[C@@H]2CCCN2C(=O)[C@H]([C@@H](C)CC)NC1=O` (single isomer, unassigned) [Design D11.23.p2, DVAL DPRO *DVAL DLEU *ILE ILE PRO *DLEU DILE ILE PRO], in data set [1], the PAMPA_Papp_Avg worked out at 9.83E-07, the PAMPA_R1 was 1.49E-06 and the PAMPA_R3 was determined as 4.80E-07.

`CC(C)C[C@@H]1NC(=O)[C@H](C)NC(=O)[C@H](C)NC(=O)[C@H]2CCCN2C(=O)[C@H](Cc2ccccc2)N(C)C(=O)[C@H]2CCCN2C(=O)[C@H](CC(C)C)N(C)C(=O)[C@@H](CC(C)C)N(C)C(=O)[C@H](Cc2ccccc2)NC(=O)[C@@H](CC(C)C)NC1=O` [Design D10.8, PHE *DLEU *LEU DPRO *PHE DPRO ALA ALA LEU DLEU] (cyclo(AAL[dL]F[dNMeL][NMeL][dP][NMeF][dP])): in data set [1], the PAMPA_Papp_Avg entry is on record as “BQL”, the PAMPA_R1 entry was “BQL” and the PAMPA_R3 entry was “BQL”.

In data set [1], `CC[C@@H](C)[C@H]1NC(=O)[C@H](CC(C)C)N(C)C(=O)[C@H]2CCCN2C(=O)[C@H](CC(C)C)NC(=O)[C@@H](Cc2ccccc2)N(C)C(=O)[C@H](CC(C)C)N(C)C(=O)[C@@H](C(C)C)NC(=O)[C@H](C)NC(=O)[C@H]2CCCN2C(=O)[C@@H]2CCCN2C1=O` (single isomer, unassigned) [Design D10.60.p2, *LEU *DPHE LEU DPRO *LEU DILE PRO DPRO ALA DVAL] came in with a PAMPA_Papp_Avg of 1.17E-06, a PAMPA_R1 of 1.49E-06 and a PAMPA_R3 of 1.62E-06.
